Measurements published in ChEMBL document CHEMBL1201862, “PubChem BioAssay data set” (2004).
Calls of active or inactive are those of the source.

Tested on: not listed separately
Assay: cytotoxicity toward NIH3T3 fibroblasts, dose response, counter-screen, cell-based, ATP luminescence, mouse fibroblasts (AID 2010);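 further: cells exposed to compound for about 90 hours before reading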
Format: functional
Conditions: not given
With Cc1ccc(C)c(NC(=N)Nc2nc(C)cc(C)n2)c1 the EC50 was > 60 µM (inconclusive).
In the case of C=CCc1cc(Cl)ccc1OCCNCCN1CCOCC1, the EC50 is reported as > 60 µM (not active).

Biological target: T1, Rac GTPase-activating protein 1 (Homo sapiens, UniProt Q9H0H5)
T1 sequence (Q9H0H5 whole entry): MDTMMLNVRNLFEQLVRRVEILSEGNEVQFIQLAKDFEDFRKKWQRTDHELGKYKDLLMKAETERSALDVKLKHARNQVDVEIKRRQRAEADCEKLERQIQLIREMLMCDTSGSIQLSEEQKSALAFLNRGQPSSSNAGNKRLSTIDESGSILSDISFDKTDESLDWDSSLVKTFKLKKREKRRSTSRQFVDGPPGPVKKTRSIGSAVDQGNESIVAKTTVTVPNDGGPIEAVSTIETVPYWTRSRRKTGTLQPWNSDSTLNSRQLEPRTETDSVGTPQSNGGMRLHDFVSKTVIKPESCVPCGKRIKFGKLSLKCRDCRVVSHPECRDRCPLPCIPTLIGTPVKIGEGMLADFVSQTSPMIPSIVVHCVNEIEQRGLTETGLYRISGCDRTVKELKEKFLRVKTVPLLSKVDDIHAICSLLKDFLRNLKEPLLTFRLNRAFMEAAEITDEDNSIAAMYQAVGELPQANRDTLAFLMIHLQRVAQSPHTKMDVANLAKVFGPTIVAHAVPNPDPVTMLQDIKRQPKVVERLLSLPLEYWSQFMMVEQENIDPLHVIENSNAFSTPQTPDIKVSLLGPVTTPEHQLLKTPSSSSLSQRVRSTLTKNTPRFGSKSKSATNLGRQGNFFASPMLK
Assay: MgcRacGAP GTPase-activating activity inhibitors, confirmation, biochemical, ADP Hunter fluorescence, primary and confirmatory (AID 624330)
Format: functional
Conditions: not given
For Brc1cccc(CNCCc2ccc3c(c2)OCO3)c1, the IC50 was 179 µM (active).
With N#C/C(=C\c1cccnc1)C(=O)Nc1cccc2ccccc12 the IC50 was 157 µM (active).
With CCN1CCN(C(C)C(=O)NC2CCCCC2)CC1 (stereo not given) the IC50 was 75.6 µM (active).
With CCN1CCN(CCCCOc2ccccc2F)CC1 the IC50 was 70.1 µM (active).
For CC(C)NCC#CCOc1ccc(Cl)cc1, the IC50 was 162 µM (active).
With Cc1cc(/C=C(\C#N)C(=O)N2CCCCC2)cc(C)c1O the IC50 was 59.4 µM (active).
For COc1ccc(N2CCN(CC(=O)Nc3cccc(S(=O)(=O)N4CCOCC4)c3)CC2)cc1, the IC50 was 77.5 µM (active).
For O=C(CC(c1ccccc1)c1ccccc1)Nc1ccc(O)cc1, the IC50 was 47.2 µM (active).
With CCOc1cc(/C=C2/NC(=O)N(Cc3ccccc3F)C2=O)ccc1O the IC50 was 44.5 µM (active).
With COc1cc(/C=C/C(=O)N[C@@H](Cc2c[nH]c3ccccc23)C(=O)O)ccc1O the IC50 was 80 µM (active).
For Cc1cc(C)c(C)c(OCCNCc2ccccc2)c1, the IC50 was 105 µM (active).
For COc1ccc(NCc2cccnc2)cc1, the IC50 was 53.1 µM (active).
For CCC(CC)N1CCN(C(=O)c2cccc(Cl)c2)CC1, the IC50 was 193 µM (active).
In the case of CCOc1ccc(OCCOCCN2CCCC2)cc1, the IC50 is reported as 109 µM (active).
For C=CCc1cc(Cl)ccc1OCCNCCN1CCOCC1, the IC50 was 90.8 µM (active).
For CSc1nc(C)c2c(n1)N(c1ccc(O)cc1)CC2, the IC50 was 16.8 µM (active).
For CCN(CC)c1ccc(NC(=O)CN2C(=O)NC3(CCc4ccccc43)C2=O)cc1 (stereo not given), the IC50 was 89.8 µM (active).
With COc1cc(/C=C/C(=O)OCC(=O)NCCCc2ccccc2)ccc1O the IC50 was 41.5 µM (active).
For O=C(Cc1coc2cc(O)ccc12)NNC(=O)c1ccc(Br)s1, the IC50 was 31.8 µM (active).
In the case of O=C(CCc1ccc(O)c(O)c1)N/N=C/c1ccc2c(c1)OCO2, the IC50 is reported as 91.7 µM (active).
In the case of COc1ccccc1N1CCN(/N=C/c2cc(OC)c(O)c(OC)c2)CC1, the IC50 is reported as 252 µM (active).
In the case of CCc1cc(/C(Cc2cscn2)=N\O)c(O)cc1O, the IC50 is reported as 52 µM (active).
With COc1cc(/C=N/NC(=O)CCN2CCN(C(c3ccccc3)c3ccccc3)CC2)ccc1O the IC50 was 50.9 µM (active).

Biological target: Cytochrome P450 2C19 (Homo sapiens, UniProt P33261)
Sequence (P33261 whole entry): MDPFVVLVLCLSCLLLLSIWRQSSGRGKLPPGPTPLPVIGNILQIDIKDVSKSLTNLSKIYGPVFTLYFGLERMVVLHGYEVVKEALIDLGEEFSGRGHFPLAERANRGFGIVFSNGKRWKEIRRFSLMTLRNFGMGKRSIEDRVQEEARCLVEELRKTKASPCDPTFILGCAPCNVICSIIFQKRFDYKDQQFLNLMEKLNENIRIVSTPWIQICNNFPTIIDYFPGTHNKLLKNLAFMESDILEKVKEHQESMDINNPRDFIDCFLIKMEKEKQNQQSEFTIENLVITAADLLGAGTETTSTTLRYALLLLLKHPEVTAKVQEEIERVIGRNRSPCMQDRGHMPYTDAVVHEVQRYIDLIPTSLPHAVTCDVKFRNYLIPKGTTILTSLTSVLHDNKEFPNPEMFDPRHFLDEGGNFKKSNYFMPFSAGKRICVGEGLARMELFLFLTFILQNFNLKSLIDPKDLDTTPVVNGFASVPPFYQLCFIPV
Assay: Cytochrome panel assay with activity outcomes. Panel member name: p450-cyp2c19 Compounds with AC50 equal or less than 10 uM are considered active
Format: functional
Conditions: not given
With Cc1ccc(C)c(NC(=N)Nc2nc(C)cc(C)n2)c1 the AC50 was “inconclusive”.

Same assay, conditions: read-out: AC50
With Cc1cccc2nc(C(F)(F)F)nc(=O)n12 the AC50 was 28.2 µM (inconclusive).
For O=c1oc2ccccc2c(O)c1Cc1c(O)c2ccccc2oc1=O [DICUMAROL], the AC50 was 10 µM (inconclusive).

Tested on: not listed separately
Assay: inhibitors of intracellular T. cruzi replication, confirmation, NIH3T3 host cells, beta-gal luminescence (AID 2044);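 further: intracellular parasites grown in NIH/3T3 mouse fibroblasts as host cells; luminescent beta-galactosidase reporter signal from transgenic T. cruzi replicating inside host cells; inhibitors lower the luminescence signal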
Format: functional, cell-based
Conditions: not given
With Cc1ccc(C)c(NC(=N)Nc2nc(C)cc(C)n2)c1 the EC50 was 1.2 µM (active).
With C=CCc1cc(Cl)ccc1OCCNCCN1CCOCC1 the EC50 was 0.136 µM (active).

Biological target: T2, Cytochrome P450 1A2 (Homo sapiens, UniProt P05177);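 further: PubChem cytochrome P450 panel assay, CYP1A2 panel member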
T2 sequence (P05177 whole entry): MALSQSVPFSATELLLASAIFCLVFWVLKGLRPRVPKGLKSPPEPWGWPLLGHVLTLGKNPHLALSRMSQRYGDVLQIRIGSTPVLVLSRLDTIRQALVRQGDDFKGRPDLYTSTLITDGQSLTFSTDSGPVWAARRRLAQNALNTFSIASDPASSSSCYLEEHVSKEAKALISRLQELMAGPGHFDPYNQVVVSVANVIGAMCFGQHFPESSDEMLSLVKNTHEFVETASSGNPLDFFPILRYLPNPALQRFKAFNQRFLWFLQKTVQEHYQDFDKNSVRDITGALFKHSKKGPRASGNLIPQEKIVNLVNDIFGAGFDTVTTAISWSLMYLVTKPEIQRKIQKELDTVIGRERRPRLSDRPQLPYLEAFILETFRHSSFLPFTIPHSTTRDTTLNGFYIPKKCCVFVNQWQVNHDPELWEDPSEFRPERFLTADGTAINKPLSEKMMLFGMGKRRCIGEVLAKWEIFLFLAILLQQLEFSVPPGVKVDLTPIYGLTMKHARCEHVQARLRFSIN
Conditions: not given
With CC1CCC(NC(=O)CC(C)(C)Cc2nc(O)c3ccccc3n2)CC1 (stereo not given) the AC50 was 22.4 µM (inconclusive).
For Cc1ccc(C)c(NC(=N)Nc2nc(C)cc(C)n2)c1, the AC50 was 14.1 µM (inconclusive).
In the case of COc1ccc(Oc2ncc3nc(CCc4ccccc4)c(=O)n(CCC#N)c3n2)cc1, the AC50 is reported as 6.31 µM (inconclusive).
With Cc1noc(C)c1-c1cncnc1NCc1ccccc1 the AC50 was 25.1 µM (inconclusive).
In the case of Cc1cccc2nc(C(F)(F)F)nc(=O)n12, the AC50 is reported as 0.0316 µM (inconclusive).
In the case of COC(=O)[C@@]1(Cc2ccc(OC)cc2)[C@H]2c3cc(C(=O)N4CCCC4)n(CCc4c[nH]c5ccc(OC)cc45)c3C[C@H]2CN1C(=O)c1ccccc1, the AC50 is reported as 10 µM (inconclusive).
For CC[C@](N)(CCC(=O)O)C(=O)O, the AC50 was 20 µM (inconclusive).
In the case of OC(Cc1nc2ccccc2[nH]1)c1ccccc1Cl (stereo not given), the AC50 is reported as 25.1 µM (inconclusive).
With CN1C[C@@H](CS(=O)(=O)N(C)C)C[C@H]2c3cccc4c3c(cn4C)C[C@@H]21 the AC50 was 25.1 µM (inconclusive).
In the case of CC(C)(C)c1nc(SCC(=O)Nc2ccc3c(c2)OCCO3)c2ccccc2n1, the AC50 is reported as 10 µM (inconclusive).
In the case of O=C1Nc2ccccc2C2=N[C@@H](CN3CCN(c4ccccc4)CC3)CN12, the AC50 is reported as 20 µM (inconclusive).
With O=C(O)CN1C(=O)CN=C(c2ccccn2)c2cc(Cl)ccc21 the AC50 was 1.26 µM (inconclusive).
For COc1ncc2ncc(=O)n(CCC#N)c2n1, the AC50 was 20 µM (inconclusive).
In the case of S=C=Nc1cccc(C2(N3CCCCC3)CCCCC2)c1, the AC50 is reported as 31.6 µM (inconclusive).
For O=c1oc2ccccc2c(O)c1Cc1c(O)c2ccccc2oc1=O [DICUMAROL], the AC50 was 12.6 µM (inconclusive).
